Source: paper PMC9045277, “Quercetin Reduces the Virulence of S. aureus by Targeting ClpP to Protect Mice from MRSA-Induced Lethal Pneumonia” (Microbiology Spectrum, 2022)

The compounds below were run against T1, ClpP (Staphylococcus aureus, UniProt Q2G036) (assay: biochemical). Settings: read-out: Relative inhibition rate (%).
T1 construct: pET28a-clpP, purified from E. coli BL21(DE3)
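Also: ClpP peptidase activity measured as fluorescence (ex 360 nm, em 465 nm) from cleavage of Suc-LY-AMC substrate at 100 µM, 30 min at 32°C.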
Protocol: This property was exploited to screen the available laboratory library of small molecules for ClpP inhibitors. First, 10 μM ClpP and 64 μg/mL of the small molecule compound were added to a black opaque 96-well plate containing 100 μL of ClpP buffer (100 mM HEPES,100 mM NaCl) and incubated for 1 h at room temperature. Afterward, 100 μM Suc-LeuTyr-AMC (Cat number S1153, Sigma-Aldrich, St. Louis, MO, USA) was added to 96-well plates and incubated for 30 min at 32°C. Finally, the fluorescence values were detected by Infinite M200 (360 nm excitation/465 nm emission). […] Since the fluorescent substrate Suc-LY-AMC can be used to detect the activity of ClpP protein, we screened a library of natural products available in our laboratory.

T1 sequence (Q2G036 whole entry): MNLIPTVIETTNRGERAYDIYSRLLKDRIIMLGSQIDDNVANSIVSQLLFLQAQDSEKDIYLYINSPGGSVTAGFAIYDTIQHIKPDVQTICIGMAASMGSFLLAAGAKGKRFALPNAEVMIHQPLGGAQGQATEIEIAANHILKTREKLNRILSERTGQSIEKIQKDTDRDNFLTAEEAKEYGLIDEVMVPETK

Point of comparison: `CC1=C[C@H](O)CC(C)(C)[C@H]1/C=C/C(C)=C/C=C/C(C)=C/C=C/C=C(C)/C=C/C=C(C)/C=C/C1=C(C)C[C@@H](O)CC1(C)C` [Lutein], inhibition at 64 µg/mL 1.4 ± 0.52%. Against it:
- CC(=O)OCC1=C[C@@H]2OC(=O)C3=CO[C@@H](O[C@@H]4O[C@H](CO)[C@@H](O)[C@H](O)[C@H]4O)[C@H]1[C@@H]32 [Asperuloside] — higher, 17.4 ± 2.31%
- CC1=CC(=O)CC(C)(C)[C@@]1(O)/C=C/C(C)=C\C(=O)O [Abscisic acid] — within error, 0.8 ± 3.42%
- O=c1c(O[C@@H]2O[C@H](CO)[C@@H](O)[C@H](O)[C@H]2O[C@@H]2O[C@H](CO)[C@@H](O)[C@H](O)[C@H]2O)c(-c2ccc(O)c(O)c2)oc2cc(O)cc(O)c12 [Baimaside] — higher, 25.1 ± 0.69%
- O=C(/C=C/c1ccc(O)c(O)c1)O[C@@H]1C[C@](O)(C(=O)O)C[C@@H](O)[C@H]1O [Chlorogenic acid] — higher, 10.4 ± 1.12%
- COc1ccc(CCC(=O)c2ccc(O)cc2)c(OC)c1 [Loureirin A] — higher, 56.5 ± 2.47%
- COc1ccc(-c2cc(=O)c3c(O)cc(O[C@@H]4O[C@H](CO[C@@H]5O[C@@H](C)[C@H](O)[C@@H](O)[C@H]5O)[C@@H](O)[C@H](O)[C@H]4O)cc3o2)cc1 [Buddleoside] — higher, 46.2 ± 1.25%
- O=C(/C=C/c1ccc(O)c(O)c1)O[C@H]1[C@H](O)C[C@](O)(C(=O)O)C[C@H]1O [Cryptochlorogenic acid] — higher, 13.7 ± 3.15%
- COc1cc(-c2coc3cc(O[C@@H]4O[C@H](CO)[C@@H](O)[C@H](O)[C@H]4O)c(OC)c(O)c3c2=O)cc(O)c1OC [Iridin] — higher, 14.2 ± 1.39%
- COc1ccc(-c2cc(=O)c3c(O)c(OC)c(O)c(OC)c3o2)cc1 [Lysionotin] — higher, 59.1 ± 1.55%
- O=C1C[C@@H](c2ccc(O[C@@H]3O[C@H](CO)[C@@H](O)[C@H](O)[C@H]3O)cc2)Oc2cc(O)ccc21 [Liquiritin] — higher, 3.2 ± 0.97%
- COc1cc2c(=O)c(-c3ccc(O)cc3)coc2cc1O[C@@H]1O[C@H](CO)[C@@H](O)[C@H](O)[C@H]1O [Glycitin] — higher, 18.5 ± 1.26%
- O=c1cc(-c2ccc(O)cc2)oc2cc(O)cc(O)c12 [Apigenin] — higher, 13.6 ± 0.52%
- COc1ccc(C(=O)O)cc1O [Isovanillic acid] — higher, 13.7 ± 2.43%
- COc1c(O)cc(O)c2c(=O)cc(-c3ccccc3)oc12 [Wogonin] — higher, 35.4 ± 2.11%
- C=CC/C(=N/OS(=O)(=O)O)S[C@@H]1O[C@H](CO)[C@@H](O)[C@H](O)[C@H]1O [Sinigrin] — higher, 20.1 ± 4.17%
- COc1ccc(C(C)=O)c(O)c1 [Paeonol] — higher, 26.7 ± 4.31%
- C[C@H]1CC[C@@]2(OC1)O[C@H]1C[C@H]3[C@@H]4CC[C@@H]5C[C@@H](O)CC[C@]5(C)[C@H]4CC[C@]3(C)[C@H]1[C@@H]2C [Sarsasapogenin] — higher, 7.8 ± 0.96%
- COc1ccc(/C=C/C(=O)c2c(O)cc(OC)cc2OC)cc1 [Flavokawain A] — within error, 2.6 ± 1.17%
- O=c1c(O[C@@H]2O[C@H](CO)[C@@H](O)[C@H](O)[C@H]2O)c(-c2ccc(O)cc2)oc2cc(O)cc(O)c12 [Astragalin] — higher, 51.3 ± 1.73%
- CC(C)=CCc1cc2c(cc1O)O[C@H](c1ccc(O)cc1)CC2=O [Bavachin] — higher, 21.7 ± 1.75%
- C[C@@H]1C(=O)O[C@H](C)[C@H]1C[C@@H](O)[C@](C)(O)[C@H]1CC[C@@]2(O)C3=CC(=O)[C@@H]4C[C@@H](O)[C@@H](O)C[C@]4(C)[C@H]3CC[C@]12C [Cyasterone] — higher, 25.6 ± 2.65%
- Oc1ccc2c(c1)OC[C@]1(O)Cc3cc(O)c(O)cc3[C@H]21 [Brazilin] — higher, 47.2 ± 2.57%
- COc1ccc(-c2coc3cc(O)cc(O)c3c2=O)cc1 [Biochanin A] — higher, 28.2 ± 1.38%
- COc1ccc(-c2oc3c(CC=C(C)C)c(O[C@@H]4O[C@H](CO)[C@@H](O)[C@H](O)[C@H]4O)cc(O)c3c(=O)c2O[C@@H]2O[C@@H](C)[C@H](O)[C@@H](O[C@@H]3O[C@H](CO)[C@@H](O)[C@H](O)[C@H]3O)[C@H]2O)cc1 [Epimedin A1] — higher, 26.7 ± 0.81%
